Structures can show the parent of a compound that is named as a salt.
What was measured:
[1] = system: antibody-producing cells in the spleen; experiment: IgM antibody producing action in mice, time of administration (FIG. 1); format: in vivo, CDF1 mice (male, 12 weeks old)
Procedure: (ii) Groups of CDF1 mice (male, 12 weeks old), each group consisting of 5 mice, were each venously injected with 1×10^8 sheep red blood cells for immunization. The thus injected mice were each orally dosed with a compound of the invention (compound No. 3 in Table 1) at the same day as of the injection (0 day), 1 day, 2 days and 3 days after the injection in an amount of 100 μg/mouse. Four days after the immunization, the number of antibody-producing cells in the spleen cells of each mouse of each group was determined.

[2] = system: antibody-producing cells in the spleen; experiment: IgM antibody producing action in mice, dose dependence (antibody-producing cells/spleen, SRBC immunization); format: in vivo, CDF1 mice (male, 10 weeks old); details: oral; for Number of antibody-producing cells/spleen (average value): 4 days after administration
splenic cells = experiment: Action on blastogenesis of splenic cells (3H-thymidine incorporation); format: cell-based, CDF1 mice (female, 10 weeks old)
Procedure: (1) The splenic cells of CDF1 mice (female, 10 weeks old) were collected and were cultured in a 10% foetal calf serum-added RPMI 1640 medium adding a lectin such as Concanavalin A (Con A) or Lipopolysaccharide (LPS) and a compound of the invention (Compound No. 3 in Table 1), and the blasting effect was determined using as an index incorporation of ^3 H-thymidine into the cultured splenic cells.
(2) The splenic cells of the mouse to which had been added different amounts of Con A or LPS and then 10 μg/ml of the inventive compound (Compound No. 3 in Table 3) were cultured to know the effect on the blasting reaction. […] Further, in order to know whichever lectin is greatly influenced by the compound of the invention for the potentiation, a stimulatory index* was calculated from the results of FIGS. 3a and 3b. […] [formula]

myeloid cells = experiment: Action on production of glanulocytic macrophage colony (CFU-C) at myeloid cell culture; format: cell-based, mouse
Procedure: In accordance with the methods of Metcalf* and Stanley et al.**, the myeloid cells of mouse were cultured in soft agar to which a colony stimulating factor (CSF)*** and different amounts of a compound of the invention (Compound No. 3 in Table 1) to investigate the action on the glanulocytic macrophage colony.
**Stanley, E. R., M. Cifone, P. M. Heard & V. Deffendi: J. Exp. Med. 143: 631-647, 1976.
***The mouse serum obtained 6 hours after venous injection of 5 μg of LPS into CDF1 mouse was added in an amount of 0.0125 ml as the colony stimulating factor.

[3] = system: delayed-type hypersensitivity; experiment: Action on delayed-type hypersensitivity (foot sole swelling, SRBC antigen); format: in vivo, CDF1 mice (male, 12 weeks old); details: oral; for Thickness of Sole Swelling (± S.D.): 24 hours after second injection
From the text: In order to evaluate an action of compounds of the invention on cellular immunity which plays the most important role on the protection reaction against viral infection, the action was investigated according to the method of Lagrange et al.* using as an index the effect on the delayed-type hypersensitivity in which sheep red blood cells were provided as antigen**.
*Lagrange, P. H., G. B. Mackaness & T. E. Miller: J. Exp. Med., 139: 528-542, 1974.
**Ishizuka, M. T. Matsuda, N. Kanbayashi, S. Fukasawa, T. Takeuchi, T. Aoyagi & H. Umezawa: J. Antibiotics 33: 642-652, 1980.
That is, groups of CDF1 mice (male, 12 weeks old), each group consisting of 5 mice, were each immunized by being subcutaneously injected with 10^8 sheep red blood cells at the soles of right hind leg and were simultaneously orally dosed with 4 μg-1 mg/mouse of a compound of the invention (compound No. 3 in Table 1). Four days after the administration, 10^8 sheep red blood cells were subcutaneously injected into each mouse at the sole of the left hind leg, thereby causing the reaction. 24 hours after the injection, the thickness of the foot sole was measured and degrees of swelling of the soles were compared with one another to judge the action.

peritoneal macrophages = experiment: Action on phagocytosis of peritoneal macrophage; format: in vivo, CDF1 mice (female, 8 weeks old); details: for T/C (phagocytosis of macrophage): peritoneal injection
Procedure: The action of the inventive compound on the phagocytosis of macrophage was investigated.
CDF1 mice (female, 8 weeks old) were each peritoneally injected with 2 ml of a thioglycolate medium to allow the peritoneal macrophages to be released. Four days after the injection, a compound of the invention (Compound No. 3 in Table 1) was peritoneally injected into each mouse in an amount ranging from 1 μg to 1 mg/mouse. 18 hours after the injection, the mice of each group was peritoneally washed with the Dulbecco phosphate buffer solution to collect the peritoneal macrophages, which were then suspended in a serum-free Dulbecco phosphate buffer solution and the suspension was placed in plastic petri dishes, followed by keeping in a 5% carbonic acid gas culture container at 37° C. for 2 hours to obtain adhesive cells. To the respective petri dishes containing the adhesive cells was added a solution of a germ Saccharomyces cervisiae. After having kept the temperature for 30 minutes, the germ solution was removed, followed by culturing 4 hours, washing, and subjecting to the Giemsa staining. Then, the number of cells phagocytizing the germ were counted under microscope to determine the effect of the compound*.
*M. Ishizuka; S. Fukasawa, T. Masuda, J. Sato, N. Kanbayashi, T. Takeuchi & H. Umezawa; J. Antibiotics 32: 330-339, 1980.

mouse's spleen cells = experiment: Antibody-producing action based on cell culture (Mishell & Dutton), FIG. 2; details: 0.005-20 μg/ml tested; 4 days culture with 1×10^6 sheep red blood cells
From the text: The action of a compound of the invention on the antibody-producing system with respect to sheep red blood cells was investigated on the basis of the mouse's spleen cell culture according to the Mishell & Dutton's method* and its modification**.
**Click, R. E., L. Benck & B. J. Alter: Cellular Immunol. 3: 156-160, 1972.

[4] = Solubility in water of salts; format: physicochemical; details: hydrochloride
Acute toxicity = details: mouse, in vivo, ip; intraperitoneal, male mice, 7 days
From the text: Typical compounds used in the immunoactivator according to the invention were each suspended in physiological salt solution and intraperitoneally administered into groups of male mice, each consisting of 5 mice, followed by breeding and observing for 7 days.

[5] = Mus musculus, Macrophage, read-out: T/C (CFU-C)

## O=Cc1ccc(C2Oc3ccccc3C3SCCN23)cc1 (stereo not shown) [Compound No. 3, 4-(2,3-dihydro-5H,10bH-thiazolo[3,2-c][1,3]benzoxadine-5-yl)benzaldehyde]
[1]; 100 μg/mouse oral
  Time of administration after stimulation of antigen giving maximum potentiation: 1 to 2 days
[1]; 100 μg/mouse oral at day 0, 1, 2 or 3 after immunization
  Number of antibody-producing cells over non-administered groups (in words, FIG. 1): increased numbers of antibody-producing cells over the non-administered groups
[2]; 100-400 μg/mouse
  Antibody production (in words): potentiate the antibody production
[2]; 0.4 μg/mouse
  T/C (antibody-producing cells): 106%
  Number of antibody-producing cells/spleen (average value): 221,130
[2]; 1.6 μg/mouse
  T/C (antibody-producing cells): 104%
  Number of antibody-producing cells/spleen (average value): 217,890
[2]; 6.2 μg/mouse
  T/C (antibody-producing cells): 91%
  Number of antibody-producing cells/spleen (average value): 189,216
[2]; 25 μg/mouse
  T/C (antibody-producing cells): 84%
  Number of antibody-producing cells/spleen (average value): 176,040
[2]; 100 μg/mouse
  T/C (antibody-producing cells): 191%
  Number of antibody-producing cells/spleen (average value): 398,520
[2]; 400 μg/mouse
  T/C (antibody-producing cells): 148%
  Number of antibody-producing cells/spleen (average value): 308,610
Splenic cells; 10 μg/ml compound, Con A or LSP 0.5-8 μg/ml
  Blasting reaction, FIGS. 3a and 3b (in words): potentiate the blasting reaction
Splenic cells; 10 μg/ml compound, calculated from FIGS. 3a and 3b
  Stimulatory index Con A vs LPS, FIG. 4 (in words): the Con A which is T-cell mitogen is more greatly acted with the compound than the LPS
Splenic cells; 10 μg/ml, Con A and LPS
  Blasting reaction caused by the lectins (in words): accelerate the blasting reaction caused by the lectins including either of Con A and LPS
Splenic cells; compound 5 μg/ml, Con A (0.5 μg/ml)
  3H-thymidine incorporation into splenic cells: 2131 cpm/culture
Splenic cells; compound 5 μg/ml, LSP (0.5 μ/ml)
  3H-thymidine incorporation into splenic cells: 1068 cpm/culture
Splenic cells; compound 5 μg/ml, no lectin
  3H-thymidine incorporation into splenic cells: 148 cpm/culture
Splenic cells; compound 10 μg/ml, Con A (0.5 μg/ml)
  3H-thymidine incorporation into splenic cells: 9982 cpm/culture
Splenic cells; compound 10 μg/ml, LSP (0.5 μ/ml)
  3H-thymidine incorporation into splenic cells: 4007 cpm/culture
Splenic cells; compound 10 μg/ml, no lectin
  3H-thymidine incorporation into splenic cells: 811 cpm/culture
Splenic cells; compound 20 μg/ml, Con A (0.5 μg/ml)
  3H-thymidine incorporation into splenic cells: 1267 cpm/culture
Splenic cells; compound 20 μg/ml, LSP (0.5 μ/ml)
  3H-thymidine incorporation into splenic cells: 665 cpm/culture
Splenic cells; compound 20 μg/ml, no lectin
  3H-thymidine incorporation into splenic cells: 105 cpm/culture
Splenic cells; culture free of any lectin
  Incorporation of 3H-thymidine without lectin (in words): more or less expedites the incorporation of ^3 H-thymidine into the splenic cells
Myeloid cells; 0.001 μg/ml
  Number of CFU-C (±S.D.): 140 ± 6
Myeloid cells; 0.01 μg/ml
  Number of CFU-C (±S.D.): 156 ± 9
Myeloid cells; 0.1 μg/ml
  Number of CFU-C (±S.D.): 189 ± 3
Myeloid cells; 1 μg/ml
  Number of CFU-C (±S.D.): 221 ± 6
Myeloid cells; 10 μg/ml
  Number of CFU-C (±S.D.): 144 ± 16
Myeloid cells; 0.1 to 1 μg/ml
  Production of CFU-C (in words): remarkably potentiate the production of CFU-C
Myeloid cells; [5]
  activity at 0.001 µg/mL: 103%
  activity at 0.01 µg/mL: 115%
  activity at 0.1 µg/mL: 139%
  activity at 1 µg/mL: 163%
  activity at 10 µg/mL: 106%
[3]; 4 μg to 1 mg/mouse
  Delayed-type hypersensitivity vs non-administered control (in words): more pronounced potentiation on the delayed-type hypersensitivity than the non-administered control groups
[3]; 4 μg/mouse
  T/C (sole swelling): 231%
  Thickness of Sole Swelling (± S.D.): 14.8 ± 1.1 × 0.1 mm
[3]; 16 μg/mouse
  T/C (sole swelling): 150%
  Thickness of Sole Swelling (± S.D.): 9.6 ± 1.0 × 0.1 mm
[3]; 62 μg/mouse
  T/C (sole swelling): 181%
  Thickness of Sole Swelling (± S.D.): 11.6 ± 1.6 × 0.1 mm
[3]; 250 μg/mouse
  T/C (sole swelling): 198%
  Thickness of Sole Swelling (± S.D.): 12.7 ± 1.7 × 0.1 mm
[3]; 1000 μg/mouse
  T/C (sole swelling): 208%
  Thickness of Sole Swelling (± S.D.): 13.3 ± 1.3 × 0.1 mm
Peritoneal macrophages; 1 μg-100 μg/mouse
  Phagocytosis of macrophage (in words): improve the phagocytosis of macrophage
Peritoneal macrophages; 1 μg/mouse
  T/C (phagocytosis of macrophage): 127%
Peritoneal macrophages; 10 μg/mouse
  T/C (phagocytosis of macrophage): 133%
Peritoneal macrophages; 100 μg/mouse
  T/C (phagocytosis of macrophage): 137%
Peritoneal macrophages; 1000 μg/mouse
  T/C (phagocytosis of macrophage): 115%
mouse's spleen cells
  Concentration range of significant potentiation of the antibody-producing action (FIG. 2): 0.3 to 5 µg/mL

## O=Cc1ccc(C2Oc3ccccc3C3SCCN23)cc1 (stereo not shown) [hydrochloride of the compound No. 3, 4-(2,3-dihydro-5H,10bH-thiazolo[3,2-c][1,3]benzoxadine-5-yl)benzaldehyde (Compound No. 3) hydrochloride]
[4]
  Solubility in water or physiological salt solution (in words): soluble in water or physiological salt solution

## c1ccc(C2Oc3ccccc3C3SCCN23)cc1 (stereo not shown) [Compound No. 1]
Acute toxicity
  LD50 at 168 h: 500 mg/kg

From patent publication US4564615A, “Immunoactivator” (SS Pharmaceutical Co., Ltd., priority 1980, dated 1986)
